# Test results published in ChEMBL document CHEMBL4130353, “2-Substituted 3,7,8-trimethylnaphtho[1,2-b]furan-4,5-diones as specific L-shaped NQO1-mediated redox modulators for the treatment of non-small cell lung cancer” (Eur J Med Chem, 2017).
# The source made the active and inactive calls. The rule behind the calls is not given here.
# What was measured:
# [1] = molecular target: NAD(P)H dehydrogenase [quinone] 1 (Homo sapiens) (UniProt P15559); test: Substrate activity at recombinant human NQO1 expressed in Escherichia coli assessed as reduction rate by measuring umol of NADPH utilized per umol of enzyme at 10 uM preincubated for 3 mins followed by NADPH addition measured at 2 secs interval for 5 mins by UV-Vis spectroscopy
# NAD(P)H dehydrogenase [quinone] 1 (Homo sapiens), sequence (P15559 whole entry): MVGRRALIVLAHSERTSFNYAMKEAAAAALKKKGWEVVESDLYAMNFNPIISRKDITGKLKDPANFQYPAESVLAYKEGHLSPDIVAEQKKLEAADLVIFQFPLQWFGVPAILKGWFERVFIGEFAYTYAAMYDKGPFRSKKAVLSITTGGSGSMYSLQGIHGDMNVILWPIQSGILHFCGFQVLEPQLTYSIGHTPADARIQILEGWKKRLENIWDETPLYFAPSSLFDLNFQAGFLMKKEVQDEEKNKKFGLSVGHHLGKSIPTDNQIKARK
# A549/TR = test: Cytotoxicity against human A549/TR cells assessed as cell growth inhibition preincubated for 24 hrs followed by compound washout measured after 72 hrs by MTT assay; format: functional, cell-based
# [2] = Solubility of the compound in diluted HCl buffer at pH 3; format: physicochemical
# [3] = Lipophilicity, log D of the compound at pH 7.4; format: physicochemical; details: buffer
# [4] = Effective permeability of the compound at pH 7.4 by PAMPA assay; format: ADME; details: read-out: Peff
# [5] = molecular target: T1, NADPH--cytochrome P450 reductase (Homo sapiens, UniProt P16435); test: Substrate activity at human CPR expressed in baculovirus expression system assessed as reduction rate by measuring umol of NADPH utilized per umol of enzyme at 10 uM preincubated for 3 mins followed by NADPH addition measured at 2 secs interval for 5 mins by UV-Vis spectroscopy; format: ADME
# T1 sequence (P16435 whole entry): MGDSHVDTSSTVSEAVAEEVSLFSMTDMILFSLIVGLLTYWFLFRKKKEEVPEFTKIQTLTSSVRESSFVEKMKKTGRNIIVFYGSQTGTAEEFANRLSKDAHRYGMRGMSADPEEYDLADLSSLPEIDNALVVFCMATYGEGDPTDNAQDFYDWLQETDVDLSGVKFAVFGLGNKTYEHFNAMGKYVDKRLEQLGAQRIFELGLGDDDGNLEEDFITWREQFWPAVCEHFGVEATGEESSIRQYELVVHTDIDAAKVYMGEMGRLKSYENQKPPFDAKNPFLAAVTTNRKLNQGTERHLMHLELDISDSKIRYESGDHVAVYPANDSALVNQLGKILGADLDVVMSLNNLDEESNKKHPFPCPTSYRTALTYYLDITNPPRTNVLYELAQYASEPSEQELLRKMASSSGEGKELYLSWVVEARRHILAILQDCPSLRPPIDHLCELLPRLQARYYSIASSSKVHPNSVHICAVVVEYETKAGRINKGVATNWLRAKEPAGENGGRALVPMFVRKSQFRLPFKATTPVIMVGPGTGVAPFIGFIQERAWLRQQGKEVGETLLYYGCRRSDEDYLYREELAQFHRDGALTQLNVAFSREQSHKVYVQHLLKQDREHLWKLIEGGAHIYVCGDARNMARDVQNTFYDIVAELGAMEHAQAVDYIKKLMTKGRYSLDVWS
# [6] = Intrinsic solubility of the compound; format: physicochemical; details: read-out: Intrinsic_solubility
# [7] = molecular target: NAD(P)H dehydrogenase [quinone] 1 (Homo sapiens) (UniProt P15559); test: Substrate activity at NQO1 in human A549 cells assessed as induction of enzyme-catalyzed ROS production at 10 uM after 1 to 3 hrs by DCFH-DA-based flow cytometry; format: cell-based
# A549 [8] = test: Antitumor activity against human A549 cells xenografted in athymic nude mouse assessed as tumor growth inhibition at 30 mg/kg, iv administered every other day for 3 weeks measured every day during compound dosing relative to control; format: functional; details: 504 h, read-out: TGI
# L02 = test: Induction of intracellular ROS levels in human L02 cells at 10 uM after 1 to 3 hrs by DCFH-DA-based flow cytometry; format: cell-based; details: l02, 10 µM
# [9] = molecular target: NAD(P)H dehydrogenase [quinone] 1 (Homo sapiens) (UniProt P15559); test: Substrate activity at NQO1 in human A549 cells assessed as induction of enzyme-catalyzed lipid peroxidation by measuring MDA equivalents per protein at 10 uM after 24 hrs by TBARS assay; format: cell-based
# Danio rerio = species: Danio rerio; test: Hepatotoxicity in 48 hrs post fertilized transgenic liver zebrafish larvae model expressing LFABP:EGFP protein at 1 uM measured after 48 hrs post dose by fluorescence based assay; format: organism-based; details: in vivo
# A549 [10] = test: Antitumor activity against human A549 cells xenografted in athymic nude mouse assessed as tumor growth inhibition at 50 mg/kg, iv administered every other day for 3 weeks measured every day during compound dosing relative to control; format: functional; details: 504 h, read-out: TGI
# Homo sapiens = species: Homo sapiens; test: Selectivity ratio for substrate activity at recombinant human NQO1 to substrate activity at human CPR
Compound,Activity [1] [µmol/min],solubility [2] [µg/mL],solubility [6] [µg/mL],other results
Cc1cc2c(cc1C)-c1oc(CNc3ccc(Cl)c(Cl)c3)c(C)c1C(=O)C2=O,847,–,–,–
COc1ccc(NCc2oc3c(c2C)C(=O)C(=O)c2cc(C)c(C)cc2-3)cc1,1120,–,–,–
CC(=O)O[C@H]1C(=O)[C@@]2(C)[C@H]([C@H](OC(=O)c3ccccc3)[C@]3(O)C[C@H](OC(=O)[C@H](O)[C@@H](NC(=O)c4ccccc4)c4ccccc4)C(C)=C1C3(C)C)[C@]1(OC(C)=O)CO[C@@H]1C[C@@H]2O [PACLITAXEL],–,–,–,IC50 (A549/TR): 28 µM
Cc1cc2c(cc1C)-c1oc(CNCc3ccc(F)cc3)c(C)c1C(=O)C2=O,1200,–,–,–
Cc1cc2c(cc1C)-c1occ(C)c1C(=O)C2=O,–,< 100,28.6,logD [3]: 3.65; Papp [4]: 43.1 ×10⁻⁶ cm/s; Activity [5]: 142 µmol NADPH/min/µmol enzyme
CC1(C)CCC2=C(O1)c1ccccc1C(=O)C2=O [LAPACHONE],–,< 100,38,Activity [7]: Active; inhibition in vivo at 30 mg/kg (A549 [8]): 78.5%; Papp [4]: 46.4 ×10⁻⁶ cm/s; Activity (L02): Toxic; Activity [9]: 15.9 nmol/mg; Activity (Danio rerio): Toxic; inhibition in vivo at 50 mg/kg (A549 [10]): 84.9%
Cc1cc2c(cc1C)-c1oc(C(=O)Nc3ccc(F)cc3)c(C)c1C(=O)C2=O,1260,–,–,–
Cc1cc2c(cc1C)-c1oc(CNc3ccc(Cl)cc3Cl)c(C)c1C(=O)C2=O,1060,–,–,–
Cc1cc2c(cc1C)-c1oc(CNc3ccc(F)c(Cl)c3)c(C)c1C(=O)C2=O,940,–,–,–
Cc1cc2c(cc1C)-c1oc(CNc3ccc(F)cc3C)c(C)c1C(=O)C2=O,1320,< 100,33.1,logD [3]: 3.31; Activity [5]: 127 µmol NADPH/min/µmol enzyme; Selectivity ratio (Homo sapiens): 10.3
Cc1cc2c(cc1C)-c1oc(CNc3ccc(F)cc3F)c(C)c1C(=O)C2=O,1180,–,–,–
Cc1cc2c(cc1C)-c1oc(C(=O)NCc3ccc(F)cc3)c(C)c1C(=O)C2=O,1290,–,–,–

# More lines, main results first:
Activity [1] [µmol/min],solubility [2] [µg/mL],solubility [6] [µg/mL],Compound,other results
1150,–,–,Cc1cc2c(cc1C)-c1oc(CNc3ccc(Br)cc3)c(C)c1C(=O)C2=O,–
955,–,–,COc1cccc(NCc2oc3c(c2C)C(=O)C(=O)c2cc(C)c(C)cc2-3)c1,–
1190,–,–,Cc1cc2c(cc1C)-c1oc(C(=O)N3CCN(c4ccc(F)cc4)CC3)c(C)c1C(=O)C2=O,–
1050,–,–,Cc1cc2c(cc1C)-c1oc(CN3CCN(c4ccccc4)CC3)c(C)c1C(=O)C2=O,–
898,–,–,Cc1cc2c(cc1C)-c1oc(CNc3ccc(C#N)cc3)c(C)c1C(=O)C2=O,–
1460,500 to 1000,151,Cc1cc2c(cc1C)-c1oc(CN3CCN(c4ccc(F)cc4)CC3)c(C)c1C(=O)C2=O,logD [3]: 2.89; Papp [4]: 28.3 ×10⁻⁶ cm/s; Activity [5]: 159 µmol NADPH/min/µmol enzyme; Selectivity ratio (Homo sapiens): 9.19
1330,100 to 500,48.5,Cc1cc2c(cc1C)-c1oc(CNc3ccc(F)cc3)c(C)c1C(=O)C2=O,logD [3]: 4.03; Papp [4]: 42 ×10⁻⁶ cm/s; Activity [5]: 105 µmol NADPH/min/µmol enzyme; Selectivity ratio (Homo sapiens): 12.7
1190,–,–,Cc1cc2c(cc1C)-c1oc(CN3CCN(Cc4ccccc4)CC3)c(C)c1C(=O)C2=O,–
1340,100 to 500,51.2,Cc1cc2c(cc1C)-c1oc(CNc3cccc(F)c3)c(C)c1C(=O)C2=O,logD [3]: 4.21; Papp [4]: 66.2 ×10⁻⁶ cm/s; Activity [5]: 112 µmol NADPH/min/µmol enzyme; Selectivity ratio (Homo sapiens): 12
1040,–,–,COc1ccccc1NCc1oc2c(c1C)C(=O)C(=O)c1cc(C)c(C)cc1-2,–
1360,100 to 500,41.1,Cc1cc2c(cc1C)-c1oc(C(=O)N3CCN(Cc4ccccc4)CC3)c(C)c1C(=O)C2=O,logD [3]: 4.82; Papp [4]: 11.9 ×10⁻⁶ cm/s; Activity [5]: 90 µmol NADPH/min/µmol enzyme; Selectivity ratio (Homo sapiens): 15.1
